From US6194411A, “3(2H)-pyridazinone derivatives and pharmaceutical compositions containing these compounds” (priority 1995, dated 2001)
Like-named read-outs stand apart in the source and are kept apart here.

Legend:
[1] = test system: phenylephrine-induced intraurethral hypertension; experiment: phenylephrine-induced intraurethral hypertension in anaesthetized cats; assay type: in vivo, cat; conditions: for ED50: Felis catus, phenylephrine 15 μg/kg/min intravenous, read-out: ED50 urethra (dose decreasing by 50% the hypertension induced by phenylephrine); for ED50 / D/U: ED50 (diastolic pressure)/ED50 (urethra): iv., anaesthetized cat; for D/U: ED50 (diastolic pressure)/ED50 (urethra): urogenital selectivity; for urogenital selectivity (in words): in vivo
Excerpt: (§1) In an in vivo animal model, in anaesthetized cat, intraurethral hypertension can be induced by α1 -adrenoceptor agonists [e.g. phenylephrine, which is chemically (-)-1-(3-hydroxyphenyl)-2-(methylamino)ethanol]. This hypertension-inducing effect can be antagonized by α1 -adrenoceptor antagonists. The antihypertensive effect is expressed by reduction of the diastolic pressure. Results of this experiment are summarized in Table 1 (the experiment is described in detail in the Pharmacological part).
^a Dose decreasing by 50% the hypertension induced by a 15 μg/kg/min
(§2) Effect on the intraurethral and diastolic blood pressure on anaesthetized cats
(§3) This investigation was performed according to the method of Lefevre et al. [Br. J. Pharmacol. 109, 1282 (1993)]. The essence of the method can be summarized as follows.
(§4) Cannules were introduced into the femoral artery and vein of pentobarbitone-anaesthetized, artificially ventilated cats of both sexes weighing 2.5 to 3.5 kg for administration of the compounds and measurement of blood pressure. The bladder was exposed by lower median laporotomy and a catheter was introduced into the urethra through the trigonum. The arterial and intraurethral pressures were registered on a Hellige polygraph by using a pressure transducer.
(§5) For excluding autonomic effects mediated not through α-adrenoceptors,mecamylamine, atropine and propranolol were administered intravenously in doses of 0.5, 0.75 and 0.5 mg/kg, respectively.
(§6) An increase in intraurethral and blood pressure was induced by phenylephrine infusion of 15 μg/kg/min; the change over the baseline pressure was considered to be 100%. The test substances were administered intravenously in 1-1000 μg/kg cumulative bolus doses. An interval of at least 5 minutes was allowed after each dose. The dose of α-antagonist inhibiting by 50% the phenylephrine-induced increase in urethral pressure ([…] uretha) as well as the dose […] by 50% the phenylephrine-induced diastolic total pressure elevation (ED50 diastolic value) were determined.

[2] = test system: α1-adrenoceptor (mesenteric artery); experiment: isolated organ: postsynaptic α1-adrenoceptor antagonism on mesenteric artery; design: species or system rat; conditions: agonist phenylephrine; 37° C; 30-minute incubation with antagonist
Description: (§7) In addition, investigations were performed on blood vessel and human hyperplasic prostate tissue preparations. In these experiments, a mesenteric artery was used as a model of resistance vessels which affect the blood pressure. We measured the extent of inhibition of the compounds of the invention and that of the reference drugs, respectively, on the contraction-inducing action of the α1 -agonist (phenylephrine).The α1 -adrenoceptor antagonism was then characterized by pA2 values.
(§8) α1 -Adrenoceptor antagonistic effect in isolated organ experiments
A) Investigation of postsynaptic α1 -adrenoceptors on the rate mesenteric artery
This test was performed according to the method of Angus et al. [J. Physiol.

[3] = biological target: T1, α1-adrenoceptor (human hyperplasic prostate tissue) (Homo sapiens, UniProt P35348); experiment: isolated organ: postsynaptic α1-adrenoceptor antagonism on human hyperplasic prostate tissue; conditions: agonist phenylephrine; 37° C; 30 minutes incubation with antagonist; read-out: pA2 human hyperplasic prostate tissue (converted)
T1 construct: Strips prepared from human hyperplasic prostate tissue; from tissue; host or cells: human hyperplastic prostate strips
T1 sequence (P35348 1-466): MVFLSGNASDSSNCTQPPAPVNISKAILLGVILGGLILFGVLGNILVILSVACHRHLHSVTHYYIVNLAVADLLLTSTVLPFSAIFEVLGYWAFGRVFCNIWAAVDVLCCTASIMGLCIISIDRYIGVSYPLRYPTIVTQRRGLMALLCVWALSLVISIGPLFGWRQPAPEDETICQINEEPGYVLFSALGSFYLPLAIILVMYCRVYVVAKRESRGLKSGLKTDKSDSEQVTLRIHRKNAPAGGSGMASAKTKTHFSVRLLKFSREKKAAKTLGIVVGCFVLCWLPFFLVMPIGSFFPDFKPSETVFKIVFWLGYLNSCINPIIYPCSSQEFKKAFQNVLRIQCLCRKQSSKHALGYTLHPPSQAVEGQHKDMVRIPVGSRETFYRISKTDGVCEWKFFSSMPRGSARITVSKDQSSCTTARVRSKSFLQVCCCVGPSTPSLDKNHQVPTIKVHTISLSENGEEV
Description: as §7, §8
(§9) B) Investigation of postsynaptic α1 -adrenoceptors on human prostate preparation
(§10) This test was performed according to the method of Scheu-Eei Yu et al. [Eur. J. Pharmacol. 252, 29 (1994)].
(§11) Strips prepared from human hyperplasic prostate tissue were suspended in a Krebs solution bubbled with carbogen at 37° C. A pre-tension of 1 g and an equilibration period of 1 hour were used. A dose-effect curve was established for phenylephrine. Then, after washing out and incubation with the antagonist for 30 minutes, the dose/effect curve was again determined. For characterizing the antagonistic effects, pA2 values were calculated.

[4] = test system: α1-adrenoceptor (human hyperplasic prostate tissue); experiment: as above; conditions: for Selectivity (prostate/artery): antilogarithmic ratio of pA2 value, human prostate vs rat mesenteric artery; for α1-adrenoceptor antagonistic effect (in words): Table 2 data, prostate tissue and resistance artery
Description: as §7, §8, §9, §10, §11

diastolic pressure = experiment: phenylephrine-induced diastolic blood pressure increase in anaesthetized cats; assay type: in vivo, cat; conditions: for ED50: Felis catus, iv., anaesthetized cat, phenylephrine 15 μg/kg/min, read-out: ED50 diastolic pressure (dose decreasing by 50% the diastolic total pressure increased by phenylephrine); for influence on other cardiovascular parameters (in words): doses that diminish the intraurethral pressure
Excerpt: as §1
^b Dose decreasing by 50% the diastolic total pressure increased by
as §2, §3, §4, §5, §6

[5] = toxicity (statement, no test described)
[6] = biological target: T2, presynaptic α2-adrenoceptor (vas deferens) (Rattus norvegicus, UniProt P22909); experiment: presynaptic α2-adrenoceptor antagonism on rat vas deferens preparation; conditions: agonist xylazine, 35° C, electrically stimulated, read-out: pA2 presynaptic (converted)
T2 construct: Vas deferents were isolated from SPRD rats; from tissue; host or cells: vas deferens of SPRD rats, electrically stimulated
T2 sequence (P22909 1-465): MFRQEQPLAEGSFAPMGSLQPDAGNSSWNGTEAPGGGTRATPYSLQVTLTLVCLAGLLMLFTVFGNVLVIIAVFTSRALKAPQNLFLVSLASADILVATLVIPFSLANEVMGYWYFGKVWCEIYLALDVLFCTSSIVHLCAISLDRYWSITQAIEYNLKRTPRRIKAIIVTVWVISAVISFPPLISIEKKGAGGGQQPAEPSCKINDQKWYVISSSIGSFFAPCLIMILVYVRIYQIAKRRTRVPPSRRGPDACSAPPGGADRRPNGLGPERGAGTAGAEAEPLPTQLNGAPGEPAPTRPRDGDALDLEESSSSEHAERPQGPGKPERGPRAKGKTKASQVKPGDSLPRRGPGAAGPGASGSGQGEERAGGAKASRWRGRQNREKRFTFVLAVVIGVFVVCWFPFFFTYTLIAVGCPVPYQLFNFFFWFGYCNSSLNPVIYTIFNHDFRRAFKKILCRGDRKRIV
Description: (§12) The antagonism was characterized by the pA2 values.
Pre- and postsynaptic α1 -adrenoceptor antagonistic effects
A) Presynaptic α2 -adrenoceptor antagonism on the rat vas deference preparation
Briefly, the experiment was performed as follows.
Vas deferents were isolated from SPRD rats according to Vizi et al. [N. S. Arch. Pharmcol.
A dose/effect curve was determined for xylazine. Then, after washing out, the organ was incubated with the antagonist. The dose/effect curve was taken again with xylazine in the presence of the antagonist. The antagonism was characterized by the pA2 value determined according to the method of Arunlakshana and Schield [Br. J. Pharmcol.

[7] = test system: postsynaptic α2-adrenoceptor (vena saphena); experiment: postsynaptic α2-adrenoceptor antagonism in dog vena saphena preparation; conditions: for selectivity toward the postsynaptic α2-receptors (in words) / α2-adrenoceptor antagonistic activity (in words): Table 3 data; for Selectivity postsynaptic/presynaptic: antilogarithmic ratio of pA2 values, dog vena saphena vs rat vas deferens
Description: as §12
(§13) B) Postsynaptic α2 -adrenoceptor antagonism in dog vena saphena preparation
(§14) This investigation was carried out by the method of Fowler et al. [J. Pharmcol.
(§15) β-Adrenoceptors were inactivated with propranolol. […] After 30 minutes, the organs were incubated with the […] for 30 minutes. Also here, the antagonism was characterized by the pA2 values.

[8] = biological target: T3, postsynaptic α2-adrenoceptor (vena saphena) (Canis lupus familiaris, UniProt A0A8I3Q7S8); experiment: as above
T3 construct: Postsynaptic α2 -adrenoceptor antagonism in dog vena saphena preparation; from tissue; host or cells: dog saphenous vein
T3 sequence (A0A8I3Q7S8 1-427): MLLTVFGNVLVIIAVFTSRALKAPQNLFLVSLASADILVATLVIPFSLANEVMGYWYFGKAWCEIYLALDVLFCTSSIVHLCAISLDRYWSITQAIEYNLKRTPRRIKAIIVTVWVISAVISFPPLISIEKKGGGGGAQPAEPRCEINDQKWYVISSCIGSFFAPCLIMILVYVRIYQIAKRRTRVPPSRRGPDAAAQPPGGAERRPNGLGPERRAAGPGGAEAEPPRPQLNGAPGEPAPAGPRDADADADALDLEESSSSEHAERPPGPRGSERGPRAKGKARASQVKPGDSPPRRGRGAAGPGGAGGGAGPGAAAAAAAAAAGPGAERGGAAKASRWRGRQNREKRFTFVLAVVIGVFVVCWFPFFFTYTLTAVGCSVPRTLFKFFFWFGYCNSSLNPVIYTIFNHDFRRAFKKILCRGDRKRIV
Description: as §12, §13, §14, §15

[9] = background; cited from earlier work
[10] = dog vena saphena, agonist UK 14304, 30 minutes incubation, read-out: pA2 postsynaptic (converted)

| SMILES | ED50 [1] [mg/kg] | D/U: ED50 (diastolic pressure)/ED50 (urethra) [1] | pA2 rat mesenteric artery [2] | Kb [3] [µM] | Selectivity (prostate/artery) [4] | ED50 (diastolic pressure) [mg/kg] | urogenital selectivity (in words) [1] | toxicity (in words) [5] | Kb [6] [µM] | α1-adrenoceptor antagonistic effect (in words) [4] | selectivity toward the postsynaptic α2-receptors (in words) [7] | α2-adrenoceptor antagonistic activity (in words) [7] | Selectivity postsynaptic/presynaptic [7] | Kb [8, 10] [µM] | influence on other cardiovascular parameters (in words) (diastolic pressure) | urogenital selectivity of available drugs (in words) [9] | Kb [8] [µM] |
| --- | --- | --- | --- | --- | --- | --- | --- | --- | --- | --- | --- | --- | --- | --- | --- | --- | --- |
| O=c1cccnn1CCCNCC1COc2ccccc2O1 (racemic) [(3), 2-[3-([1,4]benzodioxan-2-ylmethylamino)-1-propyl]-3(2H)-pyridazinone, reference compound] | 0.0284 | 4.6 | 7.16 | 0.0309 | 2.24 | 0.13 |  |  |  |  |  |  |  |  |  |  |  |
| O=c1cccnn1CCCNC[C@@H]1COc2ccccc2O1 [(1), R-2-[3-([1,4]-benzodioxan-2-ylmethylamino)-1-propyl]-3(2H)-pyridazinone] | 0.0139 | > 63.9 | 6.56 | 0.0631 | 4.37 | > 0.888 | significant urogenital selectivity | low toxicity | 1.55 | strong α1 -adrenoceptor antagonistic effect | excellent selectivity toward the postsynaptic α2 -receptors | strong α2 -adrenoceptor antagonistic activity | 115.0 | 0.0135 | very weak influence only on other cardiovascular parameters |  |  |
| O=c1cccnn1CCCNC[C@H]1COc2ccccc2O1 [(2)] | 0.0034 | 26.5 | 7.68 | 0.00589 | 3.55 | 0.09 | significant urogenital selectivity | low toxicity | 0.155 | strong α1 -adrenoceptor antagonistic effect | excellent selectivity toward the postsynaptic α2 -receptors | strong α2 -adrenoceptor antagonistic activity | 21.4 | 0.00724 | very weak influence only on other cardiovascular parameters |  |  |
| COc1cc2nc(N(C)CCCNC(=O)C3CCCO3)nc(N)c2cc1OC (stereo not shown) [Alfuzosin] |  |  | 8.60 |  |  |  |  |  |  |  |  |  |  |  |  |  |  |
| COc1cc2nc(N3CCN(C(=O)c4ccco4)CC3)nc(N)c2cc1OC [Prazosin, reference compound] | 0.0187 | 1.3 |  |  |  | 0.025 |  |  |  |  |  |  |  |  |  | low or moderate |  |
| COc1cc2nc(N3CCN(C(=O)C4CCCO4)CC3)nc(N)c2cc1OC (stereo not shown) [Terazosin] |  |  | 8.45 |  |  |  |  |  |  |  |  |  |  |  |  |  |  |
| COC(=O)[C@@H]1[C@H]2C[C@H]3c4[nH]c5ccccc5c4CCN3C[C@@H]2CC[C@@H]1O [Yohimbine, reference compound] |  |  |  |  |  |  |  |  |  |  |  |  |  |  |  |  | 0.00891 |
